Data published in patent publication US20240018145A1, “[…]-DEPENDENT EN[…] TREATING OR […]” (priority 2020, published 2024).
Where two headings read alike, the source gives them in different places.

System: FLU A (PR/8/34)
Assay: Flu A Neuraminidase Antiviral Assay
Type: cell-based

SMILES | EC50 [nM] | EC50 (MDCK, 48 h) [nM]
C=CCC1CCC2N(C)C(=O)c3c(O)c(=O)ccn3N2C1c1ccccc1Cl (stereo not drawn) [Compound 64C, 2-allyl-1-(2-chlorophenyl)-7-hydroxy-5-methyl-1,2,3,4,4a,5-hexahydrodipyrido[1,2-b:2′,1′-f][1,2,4]triazine-6,8-dione] | 674 | 
C=CCC1CCC2N(C)C(=O)c3c(O)c(=O)ccn3N2C1c1ccccc1Cl (stereo not drawn) [Compound 64D, 2-allyl-1-(2-chlorophenyl)-7-hydroxy-5-methyl-1,2,3,4,4a,5-hexahydrodipyrido[1,2-b:2′,1′-f][1,2,4]triazine-6,8-dione] | 4.6 | 
CCCC1CCC2N(C)C(=O)c3c(O)c(=O)ccn3N2C1c1ccccc1Cl (stereo not drawn) [Compound 65A, 1-(2-chlorophenyl)-7-hydroxy-5-methyl-2-propyl-1,2,3,4,4a,5-hexahydrodipyrido[1,2-b:2′,1′-f][1,2,4]triazine-6,8-dione] | 396 | 
CCCC1CCC2N(C)C(=O)c3c(O)c(=O)ccn3N2C1c1ccccc1Cl (stereo not drawn) [Compound 65B, 1-(2-chlorophenyl)-7-hydroxy-5-methyl-2-propyl-1,2,3,4,4a,5-hexahydrodipyrido[1,2-b:2′,1′-f][1,2,4]triazine-6,8-dione] | 2.8 | 
CN1C(=O)c2c(O)c(=O)ccn2N2C(c3ccccc3Cl)C(CCO)CCC12 (stereo not drawn) [Compound 66A, 1-(2-chlorophenyl)-7-hydroxy-2-(2-hydroxyethyl)-5-methyl-1,2,3,4,4a,5-hexahydrodipyrido[1,2-b:2′,1′-f][1,2,4]triazine-6,8-dione] | > 8100 | 
CN1C(=O)c2c(O)c(=O)ccn2N2C(c3ccccc3Cl)C(CCO)CCC12 (stereo not drawn) [Compound 66B, 1-(2-chlorophenyl)-7-hydroxy-2-(2-hydroxyethyl)-5-methyl-1,2,3,4,4a,5-hexahydrodipyrido[1,2-b:2′,1′-f][1,2,4]triazine-6,8-dione] | 182 | 
COCCC1CCC2N(C)C(=O)c3c(O)c(=O)ccn3N2C1c1ccccc1Cl (stereo not drawn) [Compound 67, 1-(2-chlorophenyl)-7-hydroxy-2-(2-methoxyethyl)-5-methyl-1,2,3,4,4a,5-hexahydrodipyrido[1,2-b:2′,1′-f][1,2,4]triazine-6,8-dione] |  | 16.4
CC(C)CC1CC(c2ccccc2)N2C(C1)N(C)C(=O)c1c(O)c(=O)ccn12 (stereo not drawn) [Compound 130B, 7-hydroxy-3-isobutyl-5-methyl-1-phenyl-1,2,3,4,4a,5-hexahydrodipyrido[1,2-b:2′,1′-f][1,2,4]triazine-6,8-dione] |  | 1410
CCN1C(=O)c2c(O)c(=O)cc(COC)n2N2C(c3ccccc3)C(CC(F)(F)F)CCC12 (stereo not drawn) [Compound 131B, 5-ethyl-7-hydroxy-10-(methoxymethyl)-1-phenyl-2-(2,2,2-trifluoroethyl)-1,2,3,4,4a,5-hexahydrodipyrido[1,2-b:2′,1′-f][1,2,4]triazine-6,8-dione] | > 810 | 
CCN1C(=O)c2c(O)c(=O)cc(COC)n2N2C(c3ccccc3)C(CC(F)(F)F)CCC12 (stereo not drawn) [Compound 131C, 5-ethyl-7-hydroxy-10-(methoxymethyl)-1-phenyl-2-(2,2,2-trifluoroethyl)-1,2,3,4,4a,5-hexahydrodipyrido[1,2-b:2′,1′-f][1,2,4]triazine-6,8-dione] | > 810 | 
CCN1C(=O)c2c(O)c(=O)cc(COC)n2N2C(c3ccccc3)C(CC(F)(F)F)CCC12 (stereo not drawn) [Compound 131D, 5-ethyl-7-hydroxy-10-(methoxymethyl)-1-phenyl-2-(2,2,2-trifluoroethyl)-1,2,3,4,4a,5-hexahydrodipyrido[1,2-b:2′,1′-f][1,2,4]triazine-6,8-dione] | > 810 | 
CCN1C(=O)c2c(O)c(=O)cc(COC)n2N2C(c3ccccc3)C(CC(F)(F)F)CCC12 (stereo not drawn) [Compound 131E, 5-ethyl-7-hydroxy-10-(methoxymethyl)-1-phenyl-2-(2,2,2-trifluoroethyl)-1,2,3,4,4a,5-hexahydrodipyrido[1,2-b:2′,1′-f][1,2,4]triazine-6,8-dione] | 6.8 | 
CCN1C(=O)c2c(O)c(=O)cc(COC)n2N2C(c3ccccc3)C(CC(F)(F)F)CCC12 (stereo not drawn) [Compound 131F, 5-ethyl-7-hydroxy-10-(methoxymethyl)-1-phenyl-2-(2,2,2-trifluoroethyl)-1,2,3,4,4a,5-hexahydrodipyrido[1,2-b:2′,1′-f][1,2,4]triazine-6,8-dione] | 12.5 | 
CN1C(=O)c2c(O)c(=O)c(C#N)cn2N2C(c3ccccc3)C(CC(F)(F)F)CCC12 (stereo not drawn) [Compound 133, 7-hydroxy-5-methyl-6,8-dioxo-1-phenyl-2-(2,2,2-trifluoroethyl)-1,2,3,4,4a,5,6,8-octahydrodipyrido[1,2-b:2′,1′-f][1,2,4]triazine-9-carbonitrile] |  | > 810
CN1C(=O)c2c(O)c(=O)c(-c3nnn[nH]3)cn2N2C(c3ccccc3)C(CC(F)(F)F)CCC12 (stereo not drawn) [Compound 134, 7-hydroxy-5-methyl-1-phenyl-9-(1H-tetrazol-5-yl)-2-(2,2,2-trifluoroethyl)-1,2,3,4,4a,5-hexahydrodipyrido[1,2-b:2′,1′-f][1,2,4]triazine-6,8-dione] |  | 453
CN1C(=O)c2c(O)c(=O)ccn2N2C(c3ccccc3)C(O)CCC12 (stereo not drawn) [Compound 135B, 2,7-dihydroxy-5-methyl-1-phenyl-1,2,3,4,4a,5-hexahydrodipyrido[1,2-b:2′,1′-f][1,2,4]triazine-6,8-dione] | > 8100 | 
CN1C(=O)c2c(O)c(=O)ccn2N2C(c3ccccc3)C(O)CCC12 (stereo not drawn) [Compound 136A, 2,7-dihydroxy-5-methyl-1-phenyl-1,2,3,4,4a,5-hexahydrodipyrido[1,2-b:2′,1′-f][1,2,4]triazine-6,8-dione] | 1920 | 

SMILES | EC50 [nM] | EC50 (MDCK, 48 h) [nM]
CN1C(=O)c2c(O)c(=O)ccn2N2C(c3ccccc3)C(O)CCC12 (stereo not drawn) [Compound 136B, 2,7-dihydroxy-5-methyl-1-phenyl-1,2,3,4,4a,5-hexahydrodipyrido[1,2-b:2′,1′-f][1,2,4]triazine-6,8-dione] | > 8100 | 
CN1C(=O)c2c(O)c(=O)ccn2N2C1CCC(O)C2(C)c1ccccc1 (stereo not drawn) [Compound 137A, 2,7-dihydroxy-1,5-dimethyl-1-phenyl-1,2,3,4,4a,5-hexahydrodipyrido[1,2-b:2′,1′-f][1,2,4]triazine-6,8-dione] | 790 | 
CN1C(=O)c2c(O)c(=O)ccn2N2C1CCC(O)C2(C)c1ccccc1 (stereo not drawn) [Compound 137B, 2,7-dihydroxy-1,5-dimethyl-1-phenyl-1,2,3,4,4a,5-hexahydrodipyrido[1,2-b:2′,1′-f][1,2,4]triazine-6,8-dione] | > 8100 | 
CN1C(=O)c2c(O)c(=O)ccn2N2C1CCC(O)C2(C)c1ccccc1 (stereo not drawn) [Compound 137C, 2,7-dihydroxy-1,5-dimethyl-1-phenyl-1,2,3,4,4a,5-hexahydrodipyrido[1,2-b:2′,1′-f][1,2,4]triazine-6,8-dione] | > 8100 | 
CN1C(=O)c2c(O)c(=O)ccn2N2C1CCC(O)C2(C)c1ccccc1 (stereo not drawn) [Compound 137D, 2,7-dihydroxy-1,5-dimethyl-1-phenyl-1,2,3,4,4a,5-hexahydrodipyrido[1,2-b:2′,1′-f][1,2,4]triazine-6,8-dione] | 49.3 | 
CN1C(=O)c2c(O)c(=O)ccn2N2C1CCC(=O)C2(C)c1ccccc1 (stereo not drawn) [Compound 138A, 7-hydroxy-1,5-dimethyl-1-phenyl-3,4,4a,5-tetrahydrodipyrido[1,2-b:2′,1′-f][1,2,4]triazine-2,6,8(1H)-trione] | 19.7 | 
CN1C(=O)c2c(O)c(=O)ccn2N2C1CCC(=O)C2(C)c1ccccc1 (stereo not drawn) [Compound 138B, 7-hydroxy-1,5-dimethyl-1-phenyl-3,4,4a,5-tetrahydrodipyrido[1,2-b:2′,1′-f][1,2,4]triazine-2,6,8(1H)-trione] | 1720 | 
CN1C(=O)c2c(O)c(=O)ccn2N2[C@H](c3ccccc3)[C@@H](N=[N+]=[N-])CC[C@@H]12 [Compound 139, (1R,2S,4aS)-2-azido-7-hydroxy-5-methyl-1-phenyl-1,2,3,4,4a,5-hexahydrodipyrido[1,2-b:2′,1′-f][1,2,4]triazine-6,8-dione] |  | 23.6
CN1C(=O)c2c(O)c(=O)ccn2N2[C@H](c3ccccc3)[C@@H](NC(=O)C(F)(F)F)CC[C@@H]12 [Compound 140] |  | 2400
CN1C(=O)c2c(O)c(=O)ccn2N2[C@H](c3ccccc3)[C@@H](n3cc(CO)nn3)CC[C@@H]12 [Compound 141, (1R,2S,4aS)-7-hydroxy-2-(4-(hydroxymethyl)-1H-1,2,3-triazol-1-yl)-5-methyl-1-phenyl-1,2,3,4,4a,5-hexahydrodipyrido[1,2-b:2′,1′-f][1,2,4]triazine-6,8-dione] |  | > 8100
CC(C)S[C@H]1CC[C@H]2N(C)C(=O)c3c(O)c(=O)ccn3N2[C@@H]1c1ccccc1 [Compound 143B] |  | 15.3
CC(=O)N[C@H]1CC[C@@H](c2ccccc2)N2[C@@H]1N(C)C(=O)c1c(O)c(=O)ccn12 [Compound 144, N-((1S,4S,4aS)-7-hydroxy-5-methyl-6,8-dioxo-1-phenyl-1,2,3,4,4a,5,6,8-octahydrodipyrido[1,2-b:2′,1′-f][1,2,4]triazin-4-yl)acetamide] |  | > 810
CC(=O)N(C)[C@H]1CC[C@@H](c2ccccc2)N2[C@@H]1N(C)C(=O)c1c(O)c(=O)ccn12 [Compound 145, N-((1S,4S,4aS)-7-hydroxy-5-methyl-6,8-dioxo-1-phenyl-1,2,3,4,4a,5,6,8-octahydrodipyrido[1,2-b:2′,1′-f][1,2,4]triazin-4-yl)-N-methylacetamide] |  | > 810
COc1c2n(ccc1=O)N1C(c3ccccc3)C(SC(C)C)CCC1N(C)C2=O (stereo not drawn) [Compound 146A, 2-(isopropylthio)-7-methoxy-5-methyl-1-phenyl-1,2,3,4,4a,5-hexahydrodipyrido[1,2-b:2′,1′-f][1,2,4]triazine-6,8-dione] | 18.7 | 
COc1c2n(ccc1=O)N1C(c3ccccc3)C(SC(C)C)CCC1N(C)C2=O (stereo not drawn) [Compound 146B, 2-(isopropylthio)-7-methoxy-5-methyl-1-phenyl-1,2,3,4,4a,5-hexahydrodipyrido[1,2-b:2′,1′-f][1,2,4]triazine-6,8-dione] | 237 | 
CS[C@H]1CC[C@@H](c2ccccc2)N2[C@@H]1N(C)C(=O)c1c(O)c(=O)ccn12 [Compound 147, (1S,4S,4aS)-7-hydroxy-5-methyl-4-(methylthio)-1-phenyl-1,2,3,4,4a,5-hexahydrodipyrido[1,2-b:2′,1′-f][1,2,4]triazine-6,8-dione] |  | 16.8
